According to the kinase profiling compilation of Christmann-Franck et al. (2016):
“And” between values parts separate entries of the source, which are not always exact repeats. Identical values can stand only once.

Key:
Assay in all cases: radiometric filter-binding kinase assay, Kinase HotSpot
Settings in all cases: compound 0.5 µM; ATP 10 µM
CAMK1D (human) = CAMK1D (human) (UniProt Q8IU85)
CAMK2A (human) = CAMK2A (human) (UniProt Q9UQM7)
CAMKK1 (human) = CAMKK1 (human) (UniProt Q8N5S9)
CAMKK2 (human) = CAMKK2 (human) (UniProt Q96RR4)
CDK2 CCNE1 (human) = CDK2 CCNE1 (human) (UniProt P24941+P24864)
CDK5 CDK5R1 p35 (human) = CDK5 CDK5R1 p35 (human) (UniProt Q00535+Q15078)
CSNK1A1 (human) = CSNK1A1 (human) (UniProt P48729)
CSNK1G3 (human) = CSNK1G3 (human) (UniProt Q9Y6M4)
DAPK3 (human) = DAPK3 (human) (UniProt O43293)
DYRK1A (human) = DYRK1A (human) (UniProt Q13627)
DYRK2 (human) = DYRK2 (human) (UniProt Q92630)
EPHB4 (human) = EPHB4 (human) (UniProt P54760)
FER (human) = FER (human) (UniProt P16591)
FGFR2 (human) = FGFR2 (human) (UniProt P21802)
FGFR3 (human) = FGFR3 (human) (UniProt P22607)
FLT1 (human) = FLT1 (human) (UniProt P17948)
JAK2 JH1 JH2 (human) = JAK2 JH1 JH2 (human) (UniProt O60674)
LYN (human) = LYN (human) (UniProt P07948)
MAPK1 (human) = MAPK1 (human) (UniProt P28482)
MAPK10 (human) = MAPK10 (human) (UniProt P53779)
MAPK14 (human) = MAPK14 (human) (UniProt Q16539)
MAPK8 (human) = MAPK8 (human) (UniProt P45983)
MKNK2 (human) = MKNK2 (human) (UniProt Q9HBH9)
MST1R (human) = MST1R (human) (UniProt Q04912)
NEK4 (human) = NEK4 (human) (UniProt P51957)
NTRK2 (human) = NTRK2 (human) (UniProt Q16620)
PAK1 (human) = PAK1 (human) (UniProt Q13153)
PIM3 (human) = PIM3 (human) (UniProt Q86V86)
PKN1 (human) = PKN1 (human) (UniProt Q16512)
PRKCA (human) = PRKCA (human) (UniProt P17252)
PRKCB2 (human) = PRKCB2 (human) (UniProt P05771)
PRKCG (human) = PRKCG (human) (UniProt P05129)
[1] = test system: PRKCQ (human), Q04759 [P330L]
RAF1 (human) = RAF1 (human) (UniProt P04049)
RPS6KA2 KD1 KD2 (human) = RPS6KA2 KD1 KD2 (human) (UniProt Q15349)
STK33 (human) = STK33 (human) (UniProt Q9BYT3)
TTK (human) = TTK (human) (UniProt P33981)
[2] = target: TYK2 JH1 catalytic (human) (UniProt P29597)
AKT1 (human) = AKT1 (human) (UniProt P31749)
CDK7 CCNH MNAT1 (human) = CDK7 CCNH MNAT1 (human) (UniProt P50613+P51948+P51946)
FYN (human) = FYN (human) (UniProt P06241)

Sequence of MAPK8 (human) (P45983 whole entry, looked up): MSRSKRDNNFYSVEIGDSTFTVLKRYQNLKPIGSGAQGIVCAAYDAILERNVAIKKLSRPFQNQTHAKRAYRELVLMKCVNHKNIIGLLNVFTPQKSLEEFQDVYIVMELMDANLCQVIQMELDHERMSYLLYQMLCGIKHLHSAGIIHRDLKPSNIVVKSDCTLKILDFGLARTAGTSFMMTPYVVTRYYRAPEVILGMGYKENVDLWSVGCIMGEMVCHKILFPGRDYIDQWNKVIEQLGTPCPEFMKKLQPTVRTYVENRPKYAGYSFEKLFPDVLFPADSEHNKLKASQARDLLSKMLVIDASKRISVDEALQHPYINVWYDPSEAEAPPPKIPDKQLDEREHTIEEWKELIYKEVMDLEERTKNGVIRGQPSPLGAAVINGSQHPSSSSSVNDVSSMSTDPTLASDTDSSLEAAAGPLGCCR
Sequence of MKNK2 (human) (Q9HBH9 whole entry, looked up): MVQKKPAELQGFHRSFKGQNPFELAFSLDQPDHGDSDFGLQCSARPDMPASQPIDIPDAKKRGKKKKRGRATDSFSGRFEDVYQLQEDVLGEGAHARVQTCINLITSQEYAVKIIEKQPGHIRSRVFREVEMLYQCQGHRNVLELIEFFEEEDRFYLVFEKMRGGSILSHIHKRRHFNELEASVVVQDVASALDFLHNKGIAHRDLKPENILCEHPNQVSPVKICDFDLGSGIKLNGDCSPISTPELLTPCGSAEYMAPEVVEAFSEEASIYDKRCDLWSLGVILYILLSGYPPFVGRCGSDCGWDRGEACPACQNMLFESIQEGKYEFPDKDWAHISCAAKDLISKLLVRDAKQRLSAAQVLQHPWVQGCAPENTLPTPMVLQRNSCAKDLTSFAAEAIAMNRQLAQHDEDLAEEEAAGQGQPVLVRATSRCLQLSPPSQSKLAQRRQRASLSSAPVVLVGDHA
Sequence of CAMKK2 (human) (Q96RR4 whole entry, looked up): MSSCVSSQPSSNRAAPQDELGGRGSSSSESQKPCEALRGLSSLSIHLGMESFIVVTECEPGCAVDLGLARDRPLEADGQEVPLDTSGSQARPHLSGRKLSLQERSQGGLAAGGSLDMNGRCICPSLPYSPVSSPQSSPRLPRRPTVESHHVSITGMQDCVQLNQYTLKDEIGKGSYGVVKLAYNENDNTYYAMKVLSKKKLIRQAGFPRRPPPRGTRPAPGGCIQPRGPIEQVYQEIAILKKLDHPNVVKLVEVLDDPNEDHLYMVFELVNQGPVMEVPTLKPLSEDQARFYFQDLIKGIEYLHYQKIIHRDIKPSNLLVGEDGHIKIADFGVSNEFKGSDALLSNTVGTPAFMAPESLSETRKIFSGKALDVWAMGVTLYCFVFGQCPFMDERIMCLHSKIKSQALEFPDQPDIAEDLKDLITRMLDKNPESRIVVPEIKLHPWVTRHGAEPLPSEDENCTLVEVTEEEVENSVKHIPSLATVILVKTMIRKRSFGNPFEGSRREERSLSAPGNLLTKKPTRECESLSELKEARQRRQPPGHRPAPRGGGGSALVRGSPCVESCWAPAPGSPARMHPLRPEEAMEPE
Sequence of FGFR3 (human) (P22607 whole entry, looked up): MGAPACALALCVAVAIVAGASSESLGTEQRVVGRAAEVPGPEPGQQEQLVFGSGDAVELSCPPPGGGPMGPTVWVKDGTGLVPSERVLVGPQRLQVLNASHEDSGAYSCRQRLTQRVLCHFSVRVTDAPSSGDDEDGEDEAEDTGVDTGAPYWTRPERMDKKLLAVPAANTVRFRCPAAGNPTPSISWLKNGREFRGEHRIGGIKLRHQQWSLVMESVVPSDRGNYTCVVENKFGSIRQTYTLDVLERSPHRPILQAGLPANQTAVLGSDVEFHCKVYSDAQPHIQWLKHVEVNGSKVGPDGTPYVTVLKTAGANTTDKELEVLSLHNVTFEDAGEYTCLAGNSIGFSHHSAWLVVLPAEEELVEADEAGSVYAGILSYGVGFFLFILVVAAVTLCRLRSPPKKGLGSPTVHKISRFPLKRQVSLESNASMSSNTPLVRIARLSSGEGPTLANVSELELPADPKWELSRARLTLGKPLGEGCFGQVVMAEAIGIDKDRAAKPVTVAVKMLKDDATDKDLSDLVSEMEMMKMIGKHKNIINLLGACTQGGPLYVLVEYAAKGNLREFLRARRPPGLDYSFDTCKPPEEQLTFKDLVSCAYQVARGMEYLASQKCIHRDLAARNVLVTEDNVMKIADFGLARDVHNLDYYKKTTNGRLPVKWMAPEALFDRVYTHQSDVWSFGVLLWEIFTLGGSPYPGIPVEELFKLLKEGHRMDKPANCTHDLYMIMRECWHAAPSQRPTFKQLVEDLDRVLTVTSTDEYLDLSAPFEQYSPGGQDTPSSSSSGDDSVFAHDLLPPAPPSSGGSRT
Sequence of FLT1 (human) (P17948 whole entry, looked up): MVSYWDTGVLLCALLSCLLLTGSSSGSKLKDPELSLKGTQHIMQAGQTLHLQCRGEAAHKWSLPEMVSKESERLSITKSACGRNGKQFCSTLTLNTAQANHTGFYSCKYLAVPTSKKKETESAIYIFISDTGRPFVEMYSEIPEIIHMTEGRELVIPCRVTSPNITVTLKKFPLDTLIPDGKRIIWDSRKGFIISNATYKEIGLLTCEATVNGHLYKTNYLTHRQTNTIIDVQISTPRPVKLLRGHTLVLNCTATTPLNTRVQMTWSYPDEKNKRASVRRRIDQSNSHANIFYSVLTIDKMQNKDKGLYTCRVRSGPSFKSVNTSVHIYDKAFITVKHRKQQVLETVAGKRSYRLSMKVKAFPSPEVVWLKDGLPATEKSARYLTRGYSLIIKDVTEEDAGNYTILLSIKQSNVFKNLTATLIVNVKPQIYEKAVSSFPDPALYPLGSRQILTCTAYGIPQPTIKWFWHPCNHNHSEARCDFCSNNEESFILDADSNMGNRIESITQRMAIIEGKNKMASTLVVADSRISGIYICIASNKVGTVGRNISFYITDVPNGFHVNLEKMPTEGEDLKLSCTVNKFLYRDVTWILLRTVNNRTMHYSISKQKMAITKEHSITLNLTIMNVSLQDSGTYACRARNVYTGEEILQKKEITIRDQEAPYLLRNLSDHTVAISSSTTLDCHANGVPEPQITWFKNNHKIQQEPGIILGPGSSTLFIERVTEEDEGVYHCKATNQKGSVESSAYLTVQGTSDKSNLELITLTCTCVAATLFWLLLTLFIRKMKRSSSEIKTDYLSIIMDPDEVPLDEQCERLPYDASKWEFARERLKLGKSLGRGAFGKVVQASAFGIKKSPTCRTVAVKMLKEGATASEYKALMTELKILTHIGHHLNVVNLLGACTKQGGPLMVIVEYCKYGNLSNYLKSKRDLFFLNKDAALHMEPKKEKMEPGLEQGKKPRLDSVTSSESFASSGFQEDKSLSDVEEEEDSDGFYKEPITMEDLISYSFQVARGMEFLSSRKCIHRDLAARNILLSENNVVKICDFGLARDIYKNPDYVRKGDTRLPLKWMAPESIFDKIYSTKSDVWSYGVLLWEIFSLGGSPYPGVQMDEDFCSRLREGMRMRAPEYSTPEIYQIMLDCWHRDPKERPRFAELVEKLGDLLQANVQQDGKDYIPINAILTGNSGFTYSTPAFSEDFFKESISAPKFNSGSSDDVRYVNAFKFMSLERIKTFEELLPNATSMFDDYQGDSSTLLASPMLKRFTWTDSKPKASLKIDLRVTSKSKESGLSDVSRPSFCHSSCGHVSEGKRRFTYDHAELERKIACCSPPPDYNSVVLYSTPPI
Sequence of LYN (human) (P07948 whole entry, looked up): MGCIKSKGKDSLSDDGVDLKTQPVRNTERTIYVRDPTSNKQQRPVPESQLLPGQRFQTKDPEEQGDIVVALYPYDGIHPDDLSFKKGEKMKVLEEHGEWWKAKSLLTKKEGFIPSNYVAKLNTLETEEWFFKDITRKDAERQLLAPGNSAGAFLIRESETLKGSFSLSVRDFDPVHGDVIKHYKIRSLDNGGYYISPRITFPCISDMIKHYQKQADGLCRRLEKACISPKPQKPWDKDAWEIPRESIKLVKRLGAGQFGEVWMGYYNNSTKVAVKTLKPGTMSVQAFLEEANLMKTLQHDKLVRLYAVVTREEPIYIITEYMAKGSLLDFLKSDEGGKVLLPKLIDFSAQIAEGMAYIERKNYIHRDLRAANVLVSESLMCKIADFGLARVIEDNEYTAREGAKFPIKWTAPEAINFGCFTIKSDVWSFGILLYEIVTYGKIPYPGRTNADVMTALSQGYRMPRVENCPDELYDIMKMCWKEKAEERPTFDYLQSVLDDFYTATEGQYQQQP
Sequence of CAMK1D (human) (Q8IU85 whole entry, looked up): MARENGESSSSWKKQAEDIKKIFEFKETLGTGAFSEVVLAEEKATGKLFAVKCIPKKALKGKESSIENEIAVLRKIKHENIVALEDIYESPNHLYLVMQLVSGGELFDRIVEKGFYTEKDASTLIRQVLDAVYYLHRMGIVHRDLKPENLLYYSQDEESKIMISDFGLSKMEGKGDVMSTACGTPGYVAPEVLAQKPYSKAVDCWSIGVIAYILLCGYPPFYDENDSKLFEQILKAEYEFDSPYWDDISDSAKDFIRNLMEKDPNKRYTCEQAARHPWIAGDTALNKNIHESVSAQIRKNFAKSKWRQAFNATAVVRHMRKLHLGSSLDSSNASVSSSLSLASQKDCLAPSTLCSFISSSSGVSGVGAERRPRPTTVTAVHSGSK
Sequence of CAMK2A (human) (Q9UQM7 whole entry, looked up): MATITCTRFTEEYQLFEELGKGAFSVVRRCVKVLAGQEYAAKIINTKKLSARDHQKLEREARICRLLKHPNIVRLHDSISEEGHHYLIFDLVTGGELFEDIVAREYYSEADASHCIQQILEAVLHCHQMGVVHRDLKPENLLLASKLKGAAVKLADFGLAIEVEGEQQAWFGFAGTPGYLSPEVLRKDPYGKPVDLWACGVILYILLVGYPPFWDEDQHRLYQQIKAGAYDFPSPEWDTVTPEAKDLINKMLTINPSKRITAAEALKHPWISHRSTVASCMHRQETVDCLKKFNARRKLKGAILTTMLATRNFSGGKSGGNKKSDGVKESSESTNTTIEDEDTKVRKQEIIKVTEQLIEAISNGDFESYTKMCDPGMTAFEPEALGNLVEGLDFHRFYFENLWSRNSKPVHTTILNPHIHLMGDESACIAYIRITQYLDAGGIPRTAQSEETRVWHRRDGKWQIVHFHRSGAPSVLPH

SMILES | residual activity (CAMK1D (human)) [%] | residual activity (CAMK2A (human)) [%] | residual activity (CAMKK1 (human)) [%] | residual activity (CAMKK2 (human)) [%] | residual activity (CDK5 CDK5R1 p35 (human)) [%] | residual activity (CSNK1A1 (human)) [%] | residual activity (CSNK1G3 (human)) [%] | residual activity (DAPK3 (human)) [%] | residual activity (DYRK1A (human)) [%] | residual activity (DYRK2 (human)) [%] | residual activity (EPHB4 (human)) [%] | residual activity (FER (human)) [%] | residual activity (FGFR2 (human)) [%] | residual activity (FGFR3 (human)) [%] | residual activity (FLT1 (human)) [%] | residual activity (JAK2 JH1 JH2 (human)) [%] | residual activity (LYN (human)) | residual activity (MAPK1 (human)) [%] | residual activity (MAPK10 (human)) [%] | residual activity (MAPK14 (human)) [%] | further results
NC(=O)c1cccc(-c2cc(Nc3ccc(OC(F)(F)F)cc3)ncn2)c1 | 105 | 102 | 103 | 99.1 | 96 | 103 | 93.4 | 99.8 | 101 | 78.7 | 90.6 | 105 | 95.9 | 93.2 | 98.4 | 104 | 101% and 99.8% | 96.6 | 104 | 92 | residual activity (CDK2 CCNE1 (human)): 86.6%; residual activity (MAPK8 (human)): 90.3%; residual activity (MKNK2 (human)): 95.4%; residual activity (MST1R (human)): 111%; residual activity (NEK4 (human)): 98%; residual activity (NTRK2 (human)): 96%; residual activity (PAK1 (human)): 93.3%; residual activity (PIM3 (human)): 88.6%; residual activity (PKN1 (human)): 98.9%; residual activity (PRKCA (human)): 77.4%; residual activity (PRKCB2 (human)): 122%; residual activity (PRKCG (human)): 83.6%; residual activity [1]: 104%; residual activity (RAF1 (human)): 105%; residual activity (RPS6KA2 KD1 KD2 (human)): 96.2%; residual activity (STK33 (human)): 92.1%; residual activity (TTK (human)): 91.4%; residual activity [2]: 82.7%
Fc1ccc(-c2nc3n(c2-c2ccncc2)CCS3)cc1 | 100 | 106 | 113 | 99.9 | 97.8 | 58.8 | 97.9 | 100 | 97.5 | 101 | 88 | 86.4 | 106 | 91.8 | 84.1 | 93.6 | 106% and 97.4% | 106 | 116 | 43.1 | residual activity (AKT1 (human)): 105%; residual activity (CDK2 CCNE1 (human)): 87.9%; residual activity (CDK7 CCNH MNAT1 (human)): 95%; residual activity (FYN (human)): 108%; residual activity (MAPK8 (human)): 99%; residual activity (MKNK2 (human)): 84.9%; residual activity (MST1R (human)): 97.3%; residual activity (NEK4 (human)): 93.5%; residual activity (NTRK2 (human)): 103%; residual activity (PAK1 (human)): 96.1%; residual activity (PIM3 (human)): 105%; residual activity (PKN1 (human)): 101%; residual activity (PRKCA (human)): 113%; residual activity (PRKCB2 (human)): 87.2%; residual activity [1]: 123%; residual activity (RAF1 (human)): 91.1%; residual activity (RPS6KA2 KD1 KD2 (human)): 97.1%; residual activity (STK33 (human)): 96.5%; residual activity (TTK (human)): 100%; residual activity [2]: 107%
COc1ccc2c(c1)/C(=C/c1cnc[nH]1)C(O)=N2 | 98.3 | 86.6 | 91.3 | 89.5 | -0.369 | 86.4 | 103 | 101 | 70.4 | 76.9 | 91.1 | 88.4 | 84 | 65 | 73.9 | 88.9 | 88.3% and 98.3% | 93.1 | 105 | 97.7 | residual activity (AKT1 (human)): 100%; residual activity (CDK7 CCNH MNAT1 (human)): 84.2%; residual activity (FYN (human)): 81.2%; residual activity (MAPK8 (human)): 95.9%; residual activity (MKNK2 (human)): 84.9%; residual activity (NEK4 (human)): 96%; residual activity (NTRK2 (human)): 30.1%; residual activity (PAK1 (human)): 97.8%; residual activity (PIM3 (human)): 99%; residual activity (PKN1 (human)): 87.4%; residual activity (PRKCA (human)): 91.3%; residual activity (PRKCB2 (human)): 110%; residual activity (PRKCG (human)): 95.2%; residual activity [1]: 109%; residual activity (RAF1 (human)): 98.3%; residual activity (RPS6KA2 KD1 KD2 (human)): 44.3%; residual activity (STK33 (human)): 74.7%; residual activity (TTK (human)): 59.9%; residual activity [2]: 45%
